Entries after “also recorded” stand apart in the source; their conditions may differ. Ends that are not written are not given here.
Tests used:
HLA-A^*11:01 [1] = biological target: T1, HLA-A^*11:01 (Homo sapiens, UniProt P04439, A114D/D185E/E176A/F33Y/L180Q/S129P/T187R); assay: Peptide competitive binding assay (FITC-labeled reference peptide KVFPKALINK, flow cytometry) in HMy2.CIR cells expressing HLA-A^*11:01; conditions: 24 h, 4°C; for shift in the fluorescence (flow cytometry): FITC-labeled reference peptide displaced; for 5 μM Inhibition (%): competitor 5 μM
T-cell responses = conditions: IFN-γ ELISPOT; HLA-A^*11:01 pair; cited from earlier work
From the text: (§1) A peptide sequence, ELQRREVYK, originating from the E6 oncoprotein of HPV type 52, has been recognized as an HLA-A^*11:01-restricted peptide through an in vitro peptide-binding assay. […] Considering the high prevalence of HLA-A^*11:01 allele (21.143%) in the Chinese pop ...

HLA-A^*11:01 [2] = biological target: T1, HLA-A^*11:01; conditions: in vitro peptide-binding assay; cited from earlier work
From the text: as §1

[3] = FITC-labeled reference peptide KVFPKALINK 300 nM, flow cytometry

## ALQRREVYK [ALQRREVYK]
HLA-A^*11:01 [1]
  shift in the fluorescence (flow cytometry): leftward shift in the fluorescence intensity
HLA-A^*11:01 [1]; listed as mutated peptide
  shift in the fluorescence (flow cytometry): leftward shift in the fluorescence peak
HLA-A^*11:01 [1]; bracketed from 5 and 15 μM inhibition
  IC50: 5 to 15 µM
HLA-A^*11:01 [1]; [3]
  5 μM Inhibition (%): 44.83%
HLA-A^*11:01 [1]; competitor 15 μM, FITC-labeled reference peptide KVFPKALINK 300 nM, flow cytometry
  15 μM Inhibition (%): 77.55%

## ELQRREVYK [peptide originating from the E6 oncoprotein of HPV type 52]
HLA-A^*11:01 [1]
  shift in the fluorescence (flow cytometry): does not exhibit a discernible shift; also recorded: no discernible shift
HLA-A^*11:01 [1]; [3]
  5 μM Inhibition (%): 24.21%
T-cell responses
  T-cell response: does not elicit positive T-cell responses
HLA-A^*11:01 [2]
  HLA restriction: HLA-A^*11:01-restricted

— PMC11107383, “Integrating Reinforcement Learning and Monte Carlo Tree Search for enhanced neoantigen vaccine design” (Briefings in Bioinformatics, 2024)
